Assay results reported in article PMC6814236, “Monitoring and characterizing soluble and membrane-bound ectonucleotidases CD73 and CD39” (PLoS ONE, 2019).
pIC50: −log10 of the molar value.

Assays:
PI3αKinase, p110α/p85α = test system: T1, PI3αKinase, p110α/p85α; experiment: Inhibitor specificity against other enzymes: PI3Kα; assay type: biochemical
T1 construct: purchased Promega
Excerpt: (§1) Enzyme tested are protein serine/threonine/tyrosine, lipid, sugar, and inorganic kinases, and K/Na ATPase. […] PKA, protein kinase A (solid circle), PKCα (solid square), Src, protein tyrosine Src kinase (solid triangle), Acka, acetate kinase from Escherichia coli (solid reverse triangle), HK, hexokinase from Saccharomyces cerevisiae (solid circle), PI3αKinase, p110α/p85α (square), K/K ATPase, Adenosine 5´-Triphosphatase from porcine cerebral cortex (circle), CD39 (ATP substrate, triangle), and CD39 (ADP substrate, reverse triangle); for CD73 (triangle) in panel B. Each point represents average of a typical experiment done in triplicates; results shown are mean ± SD.

[1] = test system: Adenosine 5'-Triphosphatase from porcine cerebral cortex (Na+/K+-ATPase)
Excerpt: as §1

[2] = test system: T2, Src, protein tyrosine Src kinase; experiment: Inhibitor specificity against other enzymes: Src; assay type: biochemical
T2 construct: purchased Promega
Excerpt: as §1

CD39 (His-Tag Human) = biological target: T3, CD39 (His-Tag Human) (Homo sapiens, UniProt P49961); experiment: Enzyme activity of purified CD39 with ATP or ADP as substrate; assay type: biochemical; conditions: for inhibitory effect on purified CD39: 0.1ng CD39, 10 μM ATP or 10 μM ADP, 30min at 37°C
T3 construct: His; purchased R&D Systems
T3 sequence (P49961 1-510): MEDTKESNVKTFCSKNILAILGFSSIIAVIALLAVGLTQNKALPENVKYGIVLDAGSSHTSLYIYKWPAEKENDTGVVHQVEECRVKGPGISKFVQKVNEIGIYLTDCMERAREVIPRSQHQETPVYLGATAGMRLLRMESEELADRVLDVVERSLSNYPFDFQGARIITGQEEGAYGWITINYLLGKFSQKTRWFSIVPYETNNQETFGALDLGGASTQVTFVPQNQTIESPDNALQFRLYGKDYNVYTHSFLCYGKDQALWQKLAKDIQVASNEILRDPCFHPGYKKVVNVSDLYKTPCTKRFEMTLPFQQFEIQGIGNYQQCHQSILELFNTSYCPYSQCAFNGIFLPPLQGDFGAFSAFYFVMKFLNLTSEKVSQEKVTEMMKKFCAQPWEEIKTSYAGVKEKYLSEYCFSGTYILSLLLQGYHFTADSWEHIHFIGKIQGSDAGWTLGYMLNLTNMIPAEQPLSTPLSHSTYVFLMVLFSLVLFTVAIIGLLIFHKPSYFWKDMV
Procedure: • 2 Determination of enzyme activity of purified cytosolic cN-II. Activity of purified cN-II (Human cytosolic 5'-Nucleotidase) was determined using 25μl reaction buffer (50mM HEPES, pH 7.0, 100mM KCl, 20mM MgCl2, 5mM DTT, 2.5mM dATP, and 0.1mg/ml BSA) containing enzyme and AMP substrate at 10μM (96-well format). Reaction continued at 37°C for 60 minutes or for a certain time period and terminated by the addition of equal volume (25μl) of AMP-Glo™ Reagent I. Reactions were mixed well and incubated for additional 30 min at 23°C. This was followed by the addition of 50 μl of AMP Detection Solution (10μl of AMP-Glo™ Reagent II per ml of Kinase-Glo® One Solution) and incubated for additional 60 min at 23°C before reading luminescence. • 3 Determination of enzyme activity of purified CD39. […] When ATP is used as a substrate, an equal volume of Kinase-Glo® One Solution was added to CD39 reactions and incubated for 15 min before reading luminescence using a luminometer. When ADP is used as a substrate for CD39, after enzyme reaction completion, an equal volume of AMP Detection Solution with a known CD39 known inhibitor, such as POM 1 at 50μM final concentration was added. Reactions were mixed well and incubated for 60min before reading luminescence using luminometer. For enzyme dilution, reaction buffer can be used for dilution of enzymes.

Acka, acetate kinase = test system: T4, Acka, acetate kinase; experiment: Inhibitor specificity against other enzymes: acetate kinase; assay type: biochemical, Escherichia coli
T4 construct: purchased Millipore Sigma
Excerpt: as §1

PKCα = test system: T5, PKCα; experiment: Inhibitor specificity against other enzymes: PKCα; assay type: biochemical
T5 construct: purchased Promega
Excerpt: as §1

HK, hexokinase = experiment: Inhibitor specificity against other enzymes: hexokinase; assay type: biochemical, Saccharomyces cerevisiae
Excerpt: as §1

[3] = biological target: T6, Recombinant Human 5'-Nucleotidase/CD73 (Homo sapiens, UniProt P21589); experiment: Enzyme activity of purified CD73 (AMP-Glo assay); assay type: biochemical; conditions: for pIC50: 0.1 ng CD73, 5min at 23°C
T6 construct: purchased R&D Systems
T6 sequence (P21589 27-574): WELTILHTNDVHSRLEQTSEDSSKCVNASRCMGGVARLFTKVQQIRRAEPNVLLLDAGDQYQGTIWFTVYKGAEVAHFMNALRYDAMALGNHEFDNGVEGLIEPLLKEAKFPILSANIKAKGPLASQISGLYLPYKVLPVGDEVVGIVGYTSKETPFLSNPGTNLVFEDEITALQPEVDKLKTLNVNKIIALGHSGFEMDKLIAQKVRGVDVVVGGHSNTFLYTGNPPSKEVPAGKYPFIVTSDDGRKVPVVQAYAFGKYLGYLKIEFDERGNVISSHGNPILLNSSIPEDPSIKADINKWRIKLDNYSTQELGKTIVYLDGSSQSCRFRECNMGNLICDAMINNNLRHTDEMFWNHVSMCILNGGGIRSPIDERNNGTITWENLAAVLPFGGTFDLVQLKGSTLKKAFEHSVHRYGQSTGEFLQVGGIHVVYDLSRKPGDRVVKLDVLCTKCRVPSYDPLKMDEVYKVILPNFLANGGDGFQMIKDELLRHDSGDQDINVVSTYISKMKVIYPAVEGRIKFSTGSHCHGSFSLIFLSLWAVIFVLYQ
Procedure: • Determination of enzyme activity of purified CD73. In a 25 μl reaction buffer (10mM HEPES, pH 7.4, 2mM MgCl2, 1mM CaCl2, and 0.1mg/ml BSA) containing enzyme and AMP substrate at 1μM to 10μM (96-well format), enzyme activity was performed at 23°C for specified time period and terminated by the addition of equal volume (25μl) of AMP-Glo™ Reagent I containing 50 μM (final concentration) of known CD73 inhibitor, such as AMPCP. Reactions were mixed well and incubated for additional 30 min at 23°C. This was followed by the addition of 50 μl of AMP Detection Solution (10μl of AMP-Glo™ Reagent II per ml of Kinase-Glo® One Solution) and incubated for additional 60 min at 23°C before reading luminescence.

PKA, protein kinase A = test system: T7, PKA, protein kinase A; experiment: Inhibitor specificity against other enzymes: PKA; assay type: biochemical
T7 construct: purchased Promega
Excerpt: as §1

luciferase = experiment: Control test of the compound on luciferase activity; assay type: biochemical; conditions: control for assay interference
Excerpt: Although we have not tested this assay using orthogonal assay, very recent publication used this technology (AMP Glo) to develop what they called “an exceptionally potent inhibitor of human […]” (Bowman CE, da Silva RG, Pham A, Young SW. An exceptionally potent inhibitor of human CD73. Biochemistry 2019; 58: 3331-3334) and compared their kinetic data using inorganic phosphate release and the data confirmed the validity of bioluminescence approach. Furthermore, since we launched ADP Glo for kinases and ATPases, it has been cited in over 1500 citations as well as numerus patents, and it is the main assay used for large scale screening for inhibitors in HTS laboratories. Besides, we have not found potent inhibitors of this assay other than few luciferase inhibitors which would be excluded when controls were run simultaneously. Protein concentration used in western blots for CD39 or CD39 in cells should be shown using either a housekeeping control, or the total protein concentration shown if other methods were used. Alternatively, a FACS based assay could be performed to show expression of cell surface […] or CD39.

| SMILES | inhibition of PI3Kα (PI3αKinase, p110α/p85α) | inhibition of K+/Na+-ATPase [1] | inhibition of Src [2] | inhibitory effect on purified CD39 (CD39 (His-Tag Human)) | inhibition of acetate kinase (Acka, acetate kinase) | inhibition of PKCα (PKCα) | inhibition of hexokinase (HK, hexokinase) | pIC50 ([3]; 5 μM AMP) | pIC50 ([3]; 10 μM AMP) | inhibition of PKA (PKA, protein kinase A) | pIC50 (CD39 (His-Tag Human); 10 μM ADP as substrate, 0.1 ng enzyme) | effect on CD73 enzyme activity ([3]; purified CD73, 0.1ng, 1μM AMP, 5 min at 23°C (Fig 6)) | effect on luciferase activity (luciferase) |
| --- | --- | --- | --- | --- | --- | --- | --- | --- | --- | --- | --- | --- | --- |
| Nc1ncnc2c1ncn2[C@@H]1O[C@H](COP(=O)(O)CP(=O)(O)O)[C@@H](O)[C@H]1O [AMP-CP, Adenosine 5'-(α, β-methylene) diphosphate] | no inhibition | no inhibition | no inhibition | no inhibitory effect | no inhibition | no inhibition | no inhibition | 6.80 | 6.52 | minimal inhibition |  |  |  |
| [Na+].[Na+].[Na+].[Na+].[Na+].[Na+].[O]=[W](=[O])([O-])[O-].[O]=[W](=[O])([O-])[O-].[O]=[W](=[O])([O-])[O-].[O]=[W](=[O])=[O].[O]=[W](=[O])=[O].[O]=[W](=[O])=[O].[O]=[W](=[O])=[O].[O]=[W](=[O])=[O].[O]=[W](=[O])=[O].[O]=[W](=[O])=[O].[O]=[W](=[O])=[O].[O]=[W](=[O])=[O] [POM1, Sodium metatungstate] | inhibited | inhibited | inhibited | inhibited | inhibited | inhibited | inhibited |  |  | inhibited | 5.43 | no effect | no inhibitory effect |
